Measured values: EPA's ToxRefDB 2

Assays:
rat [1] = conditions: Sub-acute repeat dose toxicity; sprague dawley; Oral; Gavage/Intubation; dose end: 1 month; group: systemic; systemic / hematology / blood clotting / blood clotting - prothrombin time + systemic / hematology / platelet / platelet + systemic / organ …
rat [2] = conditions: Fertility (Segment I), sprague dawley, Oral, Gavage/Intubation, dose end: 7 GD, group: parental
rabbit = conditions: Prenatal developmental toxicity study, new zealand white, Oral, Gavage/Intubation, dose end: 19 GD
dog [3] = conditions: Sub-acute repeat dose toxicity, beagle, Oral, Capsule, dose end: 1 month, group: systemic
rat [4] = conditions: Sub-acute repeat dose toxicity, sprague dawley, Oral, Gavage/Intubation, dose end: 1 month
rat [5] = conditions: Prenatal developmental toxicity study, sprague dawley, Oral, Gavage/Intubation, dose end: 17 GD, group: maternal
mouse [6] = conditions: Sub-acute repeat dose toxicity, cd1, Oral, Gavage/Intubation, dose end: 1 month, group: systemic
rat [7] = conditions: Fertility (Segment I), sprague dawley, Oral, Gavage/Intubation, dose end: 7 GD
dog [8] = conditions: Subchronic oral toxicity in nonrodent, beagle, Capsule, dose end: 3 month, group: systemic, systemic / clinical chemistry / alanine aminotransferase (alt/sgpt) / alanine aminotransferase (alt/sgpt) + systemic / clinical chemistry / …
rat [9] = conditions: Chronic toxicity; sprague dawley; Oral; Gavage/Intubation; dose end: 6 month; group: systemic; systemic / clinical chemistry / chloride / chloride + systemic / clinical chemistry / sodium / sodium + systemic / hematology / hematocrit (…
mouse [10] = conditions: Subchronic oral toxicity in rodents, cd1, Gavage/Intubation, dose end: 3 month, group: systemic
rat [11] = conditions: Prenatal developmental toxicity study, sprague dawley, Oral, Gavage/Intubation, dose end: 17 GD
mouse [12] = conditions: Subchronic oral toxicity in rodents, b6c3f1, Gavage/Intubation, dose end: 13 week, group: systemic
rat [13] = conditions: Combined chronic toxicity/carcinogenicity, fischer, Oral, Gavage/Intubation, dose end: 103 week, group: systemic
rat [14] = conditions: Subchronic oral toxicity in rodents, fischer, Gavage/Intubation, dose end: 13 week, group: systemic
[15] = systemic / in life observation / body weight / body weight gain + systemic / in life observation / food consumption / food consumption
[16] = systemic / in life observation / body weight / body weight gain + systemic / in life observation / food consumption / food consumption + …
[17] = systemic / in life observation / clinical signs / body surface staining
[18] = group: developmental, systemic / in life observation / body weight / fetal weight
[19] = group: maternal, reproductive / reproductive performance / postimplantation loss / postimplantation loss + reproductive / reproductive performance / …
[20] = group: maternal, systemic / in life observation / clinical signs / defecation
[21] = systemic / clinical chemistry / alkaline phosphatase (alp/alk) / alkaline phosphatase (alp/alk) + systemic / clinical chemistry / …
[22] = systemic / clinical chemistry / lipids / phospholipids + systemic / pathology gross / liver / [other] + systemic / clinical chemistry / …
[23] = group: maternal, reproductive / reproductive performance / estrous cycle / abnormal
[24] = group: systemic, systemic / clinical chemistry / cholesterol / cholesterol + systemic / clinical chemistry / globulins / globulins + systemic / clinical …
[25] = group: systemic, systemic / urinalysis / specific gravity/osmolality / specific gravity/osmolality + systemic / urinalysis / volume / volume
[26] = systemic / in life observation / body weight / body weight gain + systemic / in life observation / clinical signs / drooping eyelids (ptosis…
[27] = systemic / in life observation / body weight / body weight gain + systemic / in life observation / clinical signs / piloerection + systemic…
[28] = group: maternal, reproductive / reproductive performance / implantations / implantations + reproductive / reproductive performance / preimplantation loss / …
[29] = group: parental, systemic / in life observation / body weight / body weight gain
[30] = group: parental, systemic / in life observation / body weight / body weight gain + systemic / in life observation / clinical signs / body surface staining + …
[31] = systemic / clinical chemistry / cholesterol / cholesterol + systemic / clinical chemistry / bilirubin / total bilirubin + systemic / organ …
[32] = systemic / organ weight / liver / absolute + systemic / organ weight / liver / relative to body weight + systemic / organ weight / spleen / …
[33] = group: maternal, reproductive / reproductive performance / preimplantation loss / preimplantation loss + systemic / in life observation / body weight / body …
[34] = group: maternal, systemic / in life observation / body weight / body weight gain + systemic / in life observation / clinical signs / piloerection + systemic…
[35] = systemic / in life observation / body weight / body weight
[36] = systemic / in life observation / body weight / body weight + systemic / in life observation / clinical signs / altered breathing rate + …
[37] = systemic / pathology microscopic / liver / cytologic alterations + systemic / pathology microscopic / liver / hyperplasia
[38] = systemic / pathology microscopic / liver / cytologic alterations + systemic / pathology microscopic / liver / hyperplasia + systemic / …
[39] = systemic / in life observation / body weight / body weight + systemic / in life observation / clinical signs / lethargy + systemic / in life…

## COc1ccc(S(=O)(=O)N2C(=O)[C@@](c3ccccc3OC)(N3C[C@H](O)C[C@H]3C(=O)N(C)C)c3cc(Cl)ccc32)c(OC)c1 [Nelivaptan]
Rat [1]
  LEL: 25 mg/kg/day
  LOAEL: > 200 mg/kg/day
  NEL: < 25 mg/kg/day
  NOAEL: ≥ 200 mg/kg/day
Rat [2]; [15]
  LOAEL: 750 mg/kg/day
Rat [2]; [16]
  NOAEL: 450 mg/kg/day
Rat [2]; [17]
  LEL: 150 mg/kg/day
  NEL: < 150 mg/kg/day
rabbit; [18]
  LEL: 2000 mg/kg/day
  LOAEL: > 2000 mg/kg/day
  NEL: 1000 mg/kg/day
  NOAEL: ≥ 2000 mg/kg/day
rabbit; [19]
  LOAEL: 1000 mg/kg/day
  NOAEL: 500 mg/kg/day
rabbit; [20]
  LEL: 250 mg/kg/day
  NEL: < 250 mg/kg/day
Dog [3]; [21]
  LOAEL: 200 mg/kg/day
  NOAEL: 50 mg/kg/day
Dog [3]; [22]
  LEL: 50 mg/kg/day
  NEL: < 50 mg/kg/day
Rat [4]; [23]
  LEL: 800 mg/kg/day
  LOAEL: > 800 mg/kg/day
  NEL: 200 mg/kg/day
  NOAEL: ≥ 800 mg/kg/day
Rat [4]; [24]
  LOAEL: 200 mg/kg/day
  NOAEL: 50 mg/kg/day
Rat [4]; [25]
  LEL: 50 mg/kg/day
  NEL: < 50 mg/kg/day
Rat [5]; [15]
  LEL: 150 mg/kg/day
  NEL: < 150 mg/kg/day
Rat [5]; [16]
  LOAEL: > 750 mg/kg/day
  NOAEL: ≥ 750 mg/kg/day
Mouse [6]; [26]
  LOAEL: > 4000 mg/kg/day
  NOAEL: ≥ 4000 mg/kg/day
Mouse [6]; [27]
  LEL: 1000 mg/kg/day
  NEL: < 1000 mg/kg/day
Rat [7]; [28]
  LEL: 750 mg/kg/day
  LOAEL: 750 mg/kg/day
  NEL: 600 mg/kg/day
  NOAEL: 600 mg/kg/day
Rat [7]; [29]
  LEL: 100 mg/kg/day
  NEL: < 100 mg/kg/day
Rat [7]; [30]
  LOAEL: 750 mg/kg/day
  NOAEL: 600 mg/kg/day
Dog [8]
  LEL: 100 mg/kg/day
  LOAEL: 100 mg/kg/day
  NEL: 25 mg/kg/day
  NOAEL: 25 mg/kg/day
Rat [9]
  LEL: 25 mg/kg/day
  LOAEL: 25 mg/kg/day
  NEL: < 25 mg/kg/day
  NOAEL: < 25 mg/kg/day
Mouse [10]; [31]
  LOAEL: 1000 mg/kg/day
  NOAEL: 500 mg/kg/day
Mouse [10]; [32]
  LEL: 500 mg/kg/day
  NEL: < 500 mg/kg/day
Rat [11]; [18]
  LEL: 750 mg/kg/day
  LOAEL: 750 mg/kg/day
  NEL: 300 mg/kg/day
  NOAEL: 300 mg/kg/day
Rat [11]; [33]
  LOAEL: > 1500 mg/kg/day
  NOAEL: ≥ 1500 mg/kg/day
Rat [11]; [34]
  LEL: 300 mg/kg/day
  NEL: < 300 mg/kg/day

## COC(N)=O [Methyl carbamate]
Mouse [12]; [35]
  LEL: 125 mg/kg/day
  NEL: < 125 mg/kg/day
Mouse [12]; [36]
  LOAEL: > 1500 mg/kg/day
  NOAEL: ≥ 1500 mg/kg/day
Rat [13]; [37]
  LOAEL: 100 mg/kg/day
  NOAEL: < 100 mg/kg/day
Rat [13]; [38]
  LEL: 100 mg/kg/day
  NEL: < 100 mg/kg/day
Rat [14]; [39]
  LOAEL: > 800 mg/kg/day
  NEL: 200 mg/kg/day
  NOAEL: ≥ 800 mg/kg/day
Rat [14]; systemic / in life observation / body weight / body weight + systemic / in life observation / clinical signs / lethargy + systemic / organ …
  LEL: 400 mg/kg/day
